Assay results from patent US11311543B2, “Compositions and methods for inhibiting PTPN22” (YALE UNIVERSITY, priority 2016, dated 2022).

System: PTPN22
Test: PTPN22 expression by western blot in shRNA-transduced RAMOS B cell line
Assay type: cell-based
Conditions: human RAMOS B cell line, GFP+ shRNA+ vs GFP-
Method: FIG. 10A depicts flow cytometry analysis of Ramos B cells transduction efficiency. Ramos B cells were transduced with three different GFP-tagged shRNA PTPN22 expressing lentiviruses and probed for GFP expression. […] Percentage of knock-down is indicated. FIG. 10B depicts the frequencies of polyreactive new emigrant B cells from sorted GFP− fractions were determined. […] For each B-cell fraction, the frequency of reactive (filled area) and non-reactive (open area) clones is summarized in pie charts with the total number of clones tested indicated in the center. FIG. 10C depicts the frequencies of HEp-2 reactive new emigrant B cells from sorted GFP− fractions were determined. […] For each B-cell fraction, the frequency of reactive (filled area) and non-reactive (open area) clones is summarized in pie charts with the total number of clones tested indicated in the center. FIG. 10D depicts the frequencies of antinuclear new emigrant B cells are compared between GFP− and GFP+ shRNA+ new emigrant B cells. […]
Total cell lysates were separated by SDS page, transferred to PVDF membranes, probed with mouse anti-PTPN22 (Invitrogen) and detected by chemiluminescence (Amersham ECL Prime Western Blotting detection Reagent) using a GBox documentation system (Syngene). For quantification, blots were stripped with stripping buffer (Pierce) and reprobed with a mouse anti-β-Actin antibody (Sigma-Aldrich).

#3: shRNA targeting human PTPN22, 5′-AAGAATCCACCTGACTTCC-3′
inhibition of PTPN22 expression detected by western blot: about 80%
